Test results taken from US20220211681A1, “COMPOSITIONS AND METHODS FOR PREVENTING INFLAMMATORY CONDITIONS” (Trustees of Tufts College, priority 2019, published 2022).

Tests used:
colonic tumors = assay: Colonic tumorigenesis in HFD-fed, AOM-treated FVB mice; type: in vivo
Source text: Animals, diet and dosage information: The animal protocol was approved by the Institutional Animal Care and Use Committee of Tufts University (42015-155). Male FVB mice (4 weeks old) were obtained from the Jackson Laboratory (Bar Harbor, Me., USA), and were given free access to food (AIN-93G) and water for one week. The high-fat diet (HFD, D12450B) and low-fat diet (LFD, D12492) contained 60% and 10% of their calories as lard, respectively (Research Diets, diet details: Supplementary Tables 1, 2). […] One week after the sixth AOM injection, mice were randomized to receive 1 of 5 experimental diets: 1) LFD control, 2) […], 3) HFD containing 0.2% CUR (wt %), […], as pyridoxine HO), and 5) HFD containing both agents […]. There were 21 mice in each group. Body composition was determined by Echo-900 MRI (Houston, Tex., USA) at 21 weeks after arrival. All mice were sacrificed by isoflurane asphyxiation at 22 weeks after arrival. The liver and spleen were collected and weighed.
The dose of CUR (0.2 wt %) used in this study is equivalent to approximately 1 g/day for human dietary intake in a 60 kg adult based on equivalent surface area dosage conversion method^(30). The dose of B6 used is at 4-times the basal requirement (supplemented level) for mice. […] The colons were excised, opened longitudinally, rinsed with ice cold PBS containing protease and phosphatase inhibitors (pH 7.4) and carefully inspected under a dissection microscope. The number and size of tumors in the colons were recorded. The sizes of tumors were determined by the following formula: tumor volume (mm^3)=L×W×[(L+W)/2], where L is the length and W is the width of the tumors. Tumors and one 2-3 mm length piece of mid-colon from each mouse were fixed in 10% buffered formalin (pH 7.4) for 24 h for further histopathologic and immunohistochemical (IHC) analysis. The opened colon, spread out on a glass plate sitting atop crushed ice, was then gently scraped using glass microscope slides and the mucosa thus obtained was stored at −80° C. for future analyses. The pathology of the colonic tumors was characterized by a rodent histopathologist at the Harvard Rodent Histopathology Core (Boston, Mass., USA) who was blinded to the diet groups, and the tumors were graded as either non-neoplastic, adenomas or invasive cancers. The tumor data reported below includes only those confirmed to be either adenomas or cancers.
Statistical analyses: Data are presented as means±standard error (SE) for the indicated number of independently performed experiments. All statistical analyses were performed using SAS Version 9.3 (SAS Institute, Cary, N.C., USA). […] The tumor incidence was statistically calculated using the chi-square test. […]

calprotectin = assay: Fecal calprotectin by Mouse S100A8/S100A9 Heterodimer DuoSet ELISA; type: in vivo, FVB mice; details: vs obese control
Source text: (§1) Frozen fecal samples obtained in the colon upon euthanasia and then measured by Mouse S100A8/S100A9 Heterodimer DuoSet ELISA according to manufacturer's instructions (R&D Systems, Minneapolis, Minn.) and normalized by protein concentrations. Data are shown as the mean±SE, Different superscript letters in the bar charts indicate significant differences (p<0.05) by one-way analysis of variance (ANOVA) with Tukey's test.
(§2) Determination of pro-inflammatory cytokines in plasma and calprotectin in feces: Plasma samples were then used for determination IL-1β, IL-6, and TNT-α concentrations by V-PLEX Proinflammatory Panel 1 (mouse) Kit on a chemiluminescence platform (MesoScale Discovery (MSD), Rockville, Md., USA) according to the manufacturer's instructions. For fecal calprotectin measures, frozen fecal samples obtained in the colon upon euthanasia were lysed in ice-cold PBS containing 1% BSA, 0.05% Tween20 and protease inhibitor. Protein concentrations were determined using the BCA method. Fecal calprotectin levels were measured by Mouse S100A8/S100A9 Heterodimer DuoSet ELISA according to manufacturer's instructions (R&D Systems, Minneapolis, Minn.) and normalized by protein concentrations.

PI3K = assay: Western blot of p-PI3K/PI3K in colonic mucosa; type: in vivo, FVB mice
Source text: (§3) Each lane contained colonic mucosa collected from two individual mice that were pooled for immunoblot analysis (n=6). Data are representative of two independent experiments. Band intensity was normalized to Lamin B1 (nuclear fraction) or β-actin (whole tissue lysate) and measured by Quantity One 1-D Analysis Software (Bio-Rad). Data are shown as the mean±SE. Multiple comparisons with Hochberg method were employed to control the False Discovery Rate. Different superscript letters in the bar charts indicate significant differences (p<0.05) by one-way analysis of variance (ANOVA) with Tukey's test.
(§4) Western blot analyses: The nuclear and cytoplasmic fractions were prepared using the Nuclear Extraction Kit (Abeam) according to the manufacturer's instructions and subjected to Western blot analysis. Protein concentrations were determined using the BCA method. Briefly, equal amount of proteins (50 μg) were resolved over 4-12% SDS-polyacrylamide gel electrophoresis and transferred to nitrocellulose membranes. […] Band intensity was normalized to Lamin B1 (nuclear fraction) and measured by Quantity One 1-D Analysis Software (Bio-Rad, Hercules, Calif., USA).

IL-6 = assay: Plasma IL-6 by V-PLEX Proinflammatory Panel 1 (mouse) Kit; type: in vivo, FVB mice; details: vs obese control; combination p=0.07
Source text: as §1, §2

β-catenin = assay: Western blot of nuclear β-catenin in colonic mucosa (Wnt signaling); type: in vivo, FVB mice; details: colonic mucosa nuclear fraction, p<0.03
Source text: as §3, §4

Cc1ncc(CO)c(CO)c1O.Cl [B6, pyridoxine hydrochloride]
Tumor incidence (colonic tumors; HFD-fed, AOM-treated FVB mice, agent in diet): 59% | Tumor multiplicity (Tumors per mouse) (colonic tumors; HFD-fed, AOM-treated FVB mice, agent in diet (CUR 0.2% w/w, B6 24 mg/kg), mean ± SE): 0.95 ± 0.22^ab | Tumor burden (Total volume of tumors per mouse, mm^3) (colonic tumors; HFD-fed, AOM-treated FVB mice, agent in diet, mean ± SE): 17.19 ± 7.38^ab mm^3 | Suppression of colorectal tumorigenesis (in words) (colonic tumors; vs HFD obese control): neither CUR nor B6 alone was sufficient to suppress colorectal tumorigenesis | Suppression of fecal calprotectin (in words) (calprotectin): did not cause a significant suppression | Suppression of PI3K activation (in words) (PI3K): did not cause a significant suppression | Plasma IL-6 level (in words) (IL-6): non-significant reduction | Level of nuclear β-catenin in comparison to the obese control (in words) (β-catenin): reduced level of nuclear β-catenin
